1 substance from patent US4992418A, “Superactive human insulin analogue-[10-Aspartic Acid-B]Human Insulin” (Mount Sinai School of Medicine, priority 1987, dated 1991) can be followed below.

Assay [1] concerns the target T1, insulin receptors in rat liver plasma membranes (Rattus norvegicus, UniProt P15127).
T1 construct: Rat liver plasma membranes were prepared as described by Horvat et al; from tissue; host or cells: rat liver plasma membranes
Briefly: Insulin receptor binding assay (125I-insulin displacement, rat liver plasma membranes). The procedure:
Receptor binding assays using rat liver plasma membranes were performed as described by Kitagawa et al., Biochemistry (1984), vol. 23, pp. 1405-1413. Rat liver plasma membranes were prepared as described by Horvat et al., Biochim. Biophys. Acta (1975), vol. 382, pp. 609-620.
Following incubation for 45 min at 24° C., the mixtures were diluted with 2.0 ml of ice cold 0.1M sodium phosphate, pH 7.4, containing 0.1% fraction V bovine serum albumin and immediately filtered through cellulose-acetate filters. The filters were washed twice with the ice cold buffer, dried, and then radioactivity was counted in a scintillation counter using Filtron-X®. Nonspecific binding, defined as radioactivity remaining on the filters when the incubations contained 1×10^-5 M unlabeled insulin, was subtracted from all values.
The data points shown in FIG. 3 represent the mean of triplicate determinations in a representative assay which was performed four times. The maximum binding in these assays amounted to 8.2% of the input radioactivity.

Assay [2] concerns Guinea pig antiserum to porcine insulin. To be noted: relative to bovine or porcine insulin.
Protocol: Guinea pig antiserum to porcine insulin and goat anti-guinea pig-γ globulin were used at a 1:25 dilution in assay buffer (sodium phosphate, 0.04M, pH 7.6, containing 0.154M NaCl, 0.1% gelatin, and 0.01% thimerosal). […] After incubation at room temperature overnight, 0.2 ml of the precipitating antibody (goat anti-guinea pig-γ globulin) was added, and the tubes were further incubated overnight at room temperature. Immune precipitates were collected on cellulose-acetate filters and washed with two successive 1.0 mL portions of ice-cold assay buffer. Filters were dried and radioactivity was counted in a scintillation counter in Filtron-X®. Straight-line plots of Co /Ci were constructed by linear regression analysis as described by Hales et al., Biochem. J. (1963), vol.
For another assay, the target named is insulin receptors (Rattus norvegicus, UniProt P15127). Briefly: Standard in vitro assays measuring relative insulin potency (summary statements). To be noted: in vitro experiments of the Examples.
insulin receptors, sequence (P15127 27-759 limits assumed): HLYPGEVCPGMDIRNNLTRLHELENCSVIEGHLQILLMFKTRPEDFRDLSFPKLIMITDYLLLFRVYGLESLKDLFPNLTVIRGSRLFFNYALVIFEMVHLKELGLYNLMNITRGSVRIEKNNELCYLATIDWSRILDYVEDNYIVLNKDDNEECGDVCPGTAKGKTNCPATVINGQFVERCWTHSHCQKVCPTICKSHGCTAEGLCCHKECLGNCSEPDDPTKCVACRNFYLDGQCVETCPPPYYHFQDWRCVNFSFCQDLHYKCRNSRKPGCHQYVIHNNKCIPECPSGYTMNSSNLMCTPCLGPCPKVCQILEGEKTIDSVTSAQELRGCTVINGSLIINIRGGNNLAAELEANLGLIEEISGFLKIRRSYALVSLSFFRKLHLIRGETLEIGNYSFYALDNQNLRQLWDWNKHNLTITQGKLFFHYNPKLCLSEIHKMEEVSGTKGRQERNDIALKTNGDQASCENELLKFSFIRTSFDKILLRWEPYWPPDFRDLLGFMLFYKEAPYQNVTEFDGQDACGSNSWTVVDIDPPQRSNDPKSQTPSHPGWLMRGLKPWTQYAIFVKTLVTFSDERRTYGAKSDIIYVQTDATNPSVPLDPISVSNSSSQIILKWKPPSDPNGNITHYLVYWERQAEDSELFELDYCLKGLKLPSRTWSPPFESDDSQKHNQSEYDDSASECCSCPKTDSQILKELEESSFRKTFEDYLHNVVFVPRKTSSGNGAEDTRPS
insulin receptors, sequence (P15127 764-1383 partner limits assumed): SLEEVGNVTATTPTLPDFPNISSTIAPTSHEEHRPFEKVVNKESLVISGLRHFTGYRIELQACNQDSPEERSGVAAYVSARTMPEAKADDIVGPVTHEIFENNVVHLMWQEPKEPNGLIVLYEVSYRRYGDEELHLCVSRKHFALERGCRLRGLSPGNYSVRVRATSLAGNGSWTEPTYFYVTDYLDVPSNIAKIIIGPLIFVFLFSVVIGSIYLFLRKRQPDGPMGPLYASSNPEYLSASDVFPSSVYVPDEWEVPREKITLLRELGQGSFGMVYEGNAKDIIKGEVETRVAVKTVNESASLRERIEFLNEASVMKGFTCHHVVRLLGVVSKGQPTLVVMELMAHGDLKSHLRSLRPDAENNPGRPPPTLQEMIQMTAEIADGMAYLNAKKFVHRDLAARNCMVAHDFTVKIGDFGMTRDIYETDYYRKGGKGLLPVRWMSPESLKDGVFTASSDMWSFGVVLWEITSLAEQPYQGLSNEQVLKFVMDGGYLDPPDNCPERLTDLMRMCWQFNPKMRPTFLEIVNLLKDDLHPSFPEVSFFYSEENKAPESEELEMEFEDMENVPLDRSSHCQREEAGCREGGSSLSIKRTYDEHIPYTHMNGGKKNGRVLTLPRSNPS

T1 sequence (P15127 27-759 limits assumed): as the sequence (P15127 27-759 limits assumed) above
T1 sequence (P15127 764-1383 partner limits assumed): as the sequence (P15127 764-1383 partner limits assumed) above
Protocol for rat adipocytes: The assays measured the ability of the insulin analogue as compared to bovine insulin to convert, [3-^3 H] glucose into lipids.
Adipocytes were prepared by incubating epididymal and perirenal fat pads obtained from male rats weighing 200-300 g with 1.0 mg/ml collagenase for 60 min at 37° C., followed by filtration through gauze and then through fine-mesh silk. Cells were washed twice by flotation in a clinical centrifuge before suspension for use. The incubation medium was Krebs-Ringer bicarbonate containing half the recommended calcium, 0.5 mM glucose, and 3% fatty acid free bovine serum albumin, with 95% O2 -5% CO2 as the gas phase. […] Cells were preincubated for 45 min at 37° C. before the addition of [3-^3 H] glucose. Incubation was continued for 60 min and stopped by the addition of 0.2 ml of 5N H2 SO4 and 0.2 ml of corn oil to aid in the extraction of lipids. Samples were extracted with 10 ml of Soluscint-0® for 30 min at room temperature before counting the radioactivity in a scintillation counter. […] Zero and 100% stimulation of lipogenesis were defined as radioactivity observed in the absence and presence, respectively, of 9.1×10^-10 M insulin (5.5 ng/ml).
Stimulation, expressed as percent of maximum, was plotted as a function of the agonist concentration. […]

With [10-Aspartic acid-B] human insulin, the “Shape of dose response curves in receptor binding” value in assay [1] (compared with bovine insulin, FIG. 3) is given as “essentially parallel”. For the same substance, in assay [1] (more tightly than natural insulins), the “Binding to the insulin receptor relative to natural insulins” value is reported as “about five”. Besides, in assay [1] (relative to bovine insulin, rat liver plasma membranes, assay performed four times), the “Relative potency: concentration ratio required to inhibit 50% of specific 125I-insulin binding” value is “about 534±146%”. Further, in assay [2], the “Potency in radioimmunoassay (ratio of slopes of Co/Ci plots)” value was “approximately equal potency”. Further, the “In vitro activity relative to natural insulin (in words)” value on insulin receptors is recorded as “several fold more active”. Besides, the “Agonist character / maximum stimulation of lipogenesis” value in the assay with rat adipocytes (compared with natural bovine insulin, FIG. 4) was “full agonist”. For the same substance, in the assay on rat adipocytes (relative to bovine insulin, isolated rat adipocytes, assays performed four times), the “Relative potency: concentration ratio required to produce 50% of maximum stimulation of lipogenesis” value stood at 435±144%.
